“Also recorded” adds a separate entry of the source.
Tests used:
CYP46A1 = CYP46A1 (Homo sapiens, UniProt Q9Y6A2); settings: cited from earlier work
[1] = test system: MCAO induced ischemic brain injury; experiment: MCAO ischemic stroke model, TTC staining; type: in vivo, mice; settings: ICV 40 μM stock, 1 μl, 3 h before 45 min MCAO, TTC at 24 h
CYP46A = CYP46A (Homo sapiens, UniProt Q9Y6A2); settings: cited from earlier work
5XFAD mice = experiment: Alzheimer's disease model in 5XFAD mice; settings: 5XFAD test mice
Procedure: 5XFAD mice are obtained. 5XFAD transgenic mice express 5 human familial Alzheimer's disease (FAD) mutants in amyloid-beta precursor protein (APP) and presenilin 1 (PS1) driven by the Thy1 promoter. […] Experimental 5XFAD mice are obtained by crossing heterozygous transgenic mice with C57BL/6 wild-type breeders. Wild-type littermates are used as controls and randomly allotted to each experiment. Male mice are used in all experiments. All mice are housed in a standard animal facility with a 12 h alternating light/dark cycle.
Control mice are administered a placebo.
A Barns maze protocol is performed. Briefly, the apparatus is a revolvable white acrylic disc elevated from the floor with 18 holes equally spaced along the perimeter of the circle and positioned in a brightly light. One hole is selected as the escape target hole, and a dark escape chamber is placed under the target hole consistent for each trial. Mice are allowed to freely explore on the platform for 5 min without the escape chamber, and habituated to the escape chamber for 2 min on two consecutive days. In the training phase, a session of 2 trials is performed by each mouse. Each mouse is covered under a nontransparent cylinder placed in the center of the maze. After 15 s, the cylinder is gently removed to allow mouse to explore the maze for 180 s until the target hole is found. […] The maze and the escape chamber are wiped with 70% ethanol. The mouse is identified to find the target chamber when the back of the mice crossed the target hole. The mouse is considered to have entered the target chamber if the entire body is on the platform. The primary latency that mice took to find the target hole is documented for each trial. Two trials per day are performed for eight days. For the probe test, memory retention is assessed 5 days after the last training trial. The duration of the probe trial is 90 s. […] The position of the target hole is the same as that in the training period. The primary latency to find the target hole and time in the target quadrant is analyzed by Anymaze software.
A T maze protocol is performed. Briefly, before performing the task, the diet of mice is restricted daily to hold 80% to 85% of their primary body weight throughout the task. The T maze apparatus is placed in a quiet room, and light intensity is held at a constant level. During the training, a forced choice is followed by a free choice for each trial. In the forced-choice phase, a food pellet is placed in either the left or right choice arm. The door to the choice arm with food pellet is opened, while the other choice arm is closed. The mouse is allowed to consume the pellet. When the pellet is consumed, the mouse is returned to the start arm. After the forced choice is completed, the free choice is initialized. During the free choice, all doors are open; the mouse is allowed to freely enter one of two arms. If the mouse entered the same arm as in the forced-choice phase, the trial is considered to result in an “error,” and the pellet is removed. If the mouse entered the opposite arm as in the forced-choice phase, the trial is considered to have a “correct” result, and the mouse is rewarded with a food pellet. Following each session, the apparatus is cleaned with 70% ethanol. Six consecutive trials are performed in a session per day. The percentage of correct responses is calculated in each session.
Motor activity and anxiety is studied in the open field test. […] The mouse activity is monitored under an infrared camera for 5 min.

[2] = test system: primary cultured mouse cortical neurons; experiment: NMDA toxicity (neuronal loss, LDH release); type: cell-based; settings: MK-801 10 μM
Procedure: (§1) Cultures of mouse primary cortical neurons were prepared as described previously and modified [Leng T D, Lin J, Sun H W, Zeng Z, O'Bryant Z, Inoue K, et al. Local anesthetic lidocaine inhibits TRPM7 current and TRPM7-mediated zinc toxicity. CNS Neurosci Ther 2015; 21: 32-9.]. The use of mice for neuronal cultures was approved by the Institutional Animal Care and Use Committee of Morehouse School of Medicine. Briefly, the brains of fetuses (embryonic day 16) were removed quickly from anesthetized pregnant Swiss mice and placed in cold Ca2+/Mg2+-free PBS. Cerebral cortices were dissected and incubated with 0.05% trypsin-EDTA for 10 min at 37° C., followed by trituration. Cells were plated in 35-mm poly-L-ornithine-coated culture dishes at a density of 1×10^6 cells. […]
(§2) LDH release was measured using a cytotoxicity detection kit (Cat. No. 11644793001, Roche Diagnostics) according to the manufacturer's instruction, as described in previous studies [Leng T D, Lin J, Sun H W, Zeng Z, O'Bryant Z, Inoue K, et al. Local anesthetic lidocaine inhibits TRPM7 current and TRPM7-mediated zinc toxicity. […] The absorbance at 492 and 620 nm was measured by spectrometer (SpectraMax Plus, Molecular devices, Sunnyvale, CA, USA). LDH release was determined based on subtracting absorbance at 620 nm from that at 492 nm.

[3] = test system: primary cultured mouse cortical neurons; experiment: OGD toxicity (neuronal loss, LDH release); type: cell-based; settings: MK-801
Procedure: as §1, §2

select neurons = settings: cited from earlier work
NMDA receptor = settings: cited from earlier work

Sequence of CYP46A (Q9Y6A2 whole entry): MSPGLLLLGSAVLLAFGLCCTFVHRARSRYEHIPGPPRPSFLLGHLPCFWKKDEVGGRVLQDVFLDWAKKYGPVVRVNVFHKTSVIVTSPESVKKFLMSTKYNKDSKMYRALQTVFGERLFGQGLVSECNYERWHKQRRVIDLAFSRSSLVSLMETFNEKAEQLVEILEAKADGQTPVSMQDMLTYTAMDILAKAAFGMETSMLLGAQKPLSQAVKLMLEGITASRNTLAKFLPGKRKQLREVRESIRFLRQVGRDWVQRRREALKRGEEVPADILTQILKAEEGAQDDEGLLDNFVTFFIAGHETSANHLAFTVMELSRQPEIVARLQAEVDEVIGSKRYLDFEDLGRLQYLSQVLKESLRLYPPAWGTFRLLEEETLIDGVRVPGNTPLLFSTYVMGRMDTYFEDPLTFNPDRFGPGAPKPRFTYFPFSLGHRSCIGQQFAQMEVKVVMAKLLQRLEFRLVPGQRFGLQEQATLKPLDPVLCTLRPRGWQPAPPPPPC
Sequence of CYP46A1 (Q9Y6A2 whole entry, species assumed): as the sequence (Q9Y6A2 whole entry) above

C[C@@H](c1ncncc1F)[C@](O)(Cn1cncn1)c1ccc(F)cc1F [voriconazole]
synthesis of 24S-HC in vitro (CYP46A1; at ˜1 M (so in the source)): almost completely inhibit
inhibitor of CYP46A1 (CYP46A1): potent inhibitor
ischemic brain injury (infarction, TTC staining) [1]: reduces ischemic brain injury
ischemic brain injury (infarction, TTC staining) ([1]; listed as Vori): dramatically reduced ischemic brain injury; also recorded: protects against 45 min MCAO induced ischemic brain injury
affinity for CYP46A (CYP46A): nanomolar affinity
Aβ deposition (5XFAD mice): attenuate Aβ deposition
cognitive functions (5XFAD mice): improve cognitive functions
microgliosis (5XFAD mice): decrease microgliosis
neuroinflammation (5XFAD mice): reduce neuroinflammation
synapse loss and neuronal loss (5XFAD mice): reversed

S=C(NC1CCCCC1)N1CCC(c2cnc[nH]2)CC1 [thioperamide]
affinity for CYP46A (CYP46A): nanomolar affinity

N[C@@H]1C[C@H]1c1ccccc1 (racemic) [tranylcypromine]
affinity for CYP46A (CYP46A): nanomolar affinity

Clc1ccccc1C(c1ccccc1)(c1ccccc1)n1ccnc1 [clotrimazole]
affinity for CYP46A (CYP46A): nanomolar affinity

C[C@]12N[C@H](Cc3ccccc31)c1ccccc12 [MK-801, dizocilpine]
inhibition of 24S-HC increased NMDA toxicity [2]: completely inhibited
inhibition of 24S-HC increased NMDA toxicity ([2]; listed as MK801): completely abolishes the toxicity of 24S-HC
inhibition of 24S-HC increased OGD toxicity [3]: completely inhibited
inhibition of 24S-HC increased OGD toxicity ([3]; listed as MK801): completely abolishes the toxicity of 24S-HC
cytoplasmic vacuoles in select neurons (select neurons): causes cytoplasmic vacuoles in select neurons
Aβ[1-42]-triggered excitotoxicity via the NMDA receptor (NMDA receptor): can be prevented
